Test results as given in PMC11448502, “Cryo-EM structures of the human P2X1 receptor reveal subtype-specific architecture and antagonism by supramolecular ligand-binding” (Nature Communications, 2024).
Residue numbers refer to the chain shown, from its start. Where “and” joins values, the source holds several entries; their conditions need not be identical. Equal entries are not always repeated. Entries after “also recorded” stand apart in the source; their conditions may differ.

Tests used:
Experiment in all cases: ATP dose response (EC50), TEVC in oocytes
Type in all cases: cell-based
hP2X1 WT = molecular target: T1, hP2X1 WT (Homo sapiens, UniProt P51575)
T1 construct: hP2X1 mRNA that was made from linearized full-length wild-type or mutant pcDNA 3.1x; expressed in transfected cells; host or cells: Xenopus laevis oocytes (mRNA injection)
T1 sequence (P51575 1-399): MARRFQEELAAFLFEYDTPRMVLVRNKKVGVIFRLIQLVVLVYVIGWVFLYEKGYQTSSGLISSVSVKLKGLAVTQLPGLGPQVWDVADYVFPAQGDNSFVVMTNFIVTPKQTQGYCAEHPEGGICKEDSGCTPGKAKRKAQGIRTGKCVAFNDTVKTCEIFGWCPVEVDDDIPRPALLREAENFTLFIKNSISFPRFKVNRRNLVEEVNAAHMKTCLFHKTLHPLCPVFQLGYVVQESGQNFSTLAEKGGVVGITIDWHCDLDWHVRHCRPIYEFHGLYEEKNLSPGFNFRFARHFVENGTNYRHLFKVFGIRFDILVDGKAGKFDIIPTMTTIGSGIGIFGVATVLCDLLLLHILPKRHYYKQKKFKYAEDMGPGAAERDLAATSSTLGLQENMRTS
Method: (§1) Oocytes were purchased defolliculated from Ecocyte Bioscience in Barth’s Solution (88 mM NaCl, 1 mM KCl, 0.82 mM MgSO4, 0.33 mM Ca(NO3)2, 0.41 mM CaCl2, 2.4 mM NaHCO3, 5 mM Tris-HCl) supplemented with penicillin (100 U/mL) and streptomycin (100 µg/mL). Xenopus laevis oocytes were then injected with 50 nL of 100 ng/μL hP2X1 mRNA that was made from linearized full-length wild-type or mutant pcDNA 3.1x according to the protocol provided in the mMessage mMachine kit (Invitrogen). Injected oocytes were allowed to express for ~20 hours at 18 °C before recording was performed.
(§2) Data acquisition was performed using the Oocyte Clamp OC-725C amplifier and pClamp 8.2 software. Buffers were applied using a gravity fed RSC-200 Rapid Solution Changer that flows at ~5 mL/min. All experiments use Sutter filamented glass 10 cm in length with an inner diameter of 0.69 mm and an outer diameter of 1.2 mm to impale oocytes and clamp the holding voltage at −60 mV. Experiments were recorded in buffer containing 10 mM HEPES (pH 7.4), 140 mM NaCl, 5 mM KCl, 2 mM CaCl2, 2 mM MgCl2, and 10 mM glucose.
(§3) Excitatory responses to a dilution series of ATP between 6.4 nM and 10 mM were examined across the different mutants. Each evoked response was normalized to an initial ATP-induced current evoked by the following concentrations: 500 µM ATP for R292A, 2 mM ATP for K309A, and 100 µM ATP for the remaining mutants and wild-type receptor. The data was fit in Prism 9 using the nonlinear regression named “EC50, x is concentration” to afford EC50 values. This value was then averaged amongst each singular condition and reported as an average plus or minus the standard deviation.

hP2X1 K309A = molecular target: T2, hP2X1 K309A (Homo sapiens, UniProt P51575, K309A)
T2 construct: hP2X1 mRNA that was made from linearized full-length wild-type or mutant pcDNA 3.1x; expressed in transfected cells; host or cells: Xenopus laevis oocytes (mRNA injection)
T2 sequence (P51575 1-399 K309A): T1 sequence (P51575 1-399) with K309A
Method: as §1, §2, §3

hP2X1 K249A = molecular target: T3, hP2X1 K249A (Homo sapiens, UniProt P51575, K249A); settings: for Normalized Current: hP2X1 K249A
T3 construct: hP2X1 mRNA that was made from linearized full-length wild-type or mutant pcDNA 3.1x; expressed in transfected cells; host or cells: Xenopus laevis oocytes (mRNA injection)
T3 sequence (P51575 1-399 K249A): T1 sequence (P51575 1-399) with K249A
Method: as §1, §2, §3

hP2X1 K136A = molecular target: T4, hP2X1 K136A (Homo sapiens, UniProt P51575, K136A)
T4 construct: hP2X1 mRNA that was made from linearized full-length wild-type or mutant pcDNA 3.1x; expressed in transfected cells; host or cells: Xenopus laevis oocytes (mRNA injection)
T4 sequence (P51575 1-399 K136A): T1 sequence (P51575 1-399) with K136A
Method: as §1, §2, §3

Nc1ncnc2c1ncn2[C@@H]1O[C@H](COP(=O)(O)OP(=O)(O)OP(=O)(O)O)[C@@H](O)[C@H]1O [ATP]
EC50 (hP2X1 WT; TEVC, Xenopus laevis oocytes, mean ± SD, triplicate, read-out: apparent affinity (EC50) of ATP): 1700 ± 300 nM | Normalized Current (hP2X1 WT; [ATP] 1.000E-04 M): 1.041 and 0.9705 and 0.9151 | Normalized Current (hP2X1 WT; [ATP] 1.600E-07 M): 0.08801 and 0.07128 and 0.05984 | Normalized Current (hP2X1 WT; [ATP] 4.000E-06 M): 0.7387 and 0.5911 and 0.5682 | Normalized Current (hP2X1 WT; [ATP] 5.000E-04 M): 1.055 and 1.025 and 0.9207 | Normalized Current (hP2X1 WT; [ATP] 8.000E-07 M): 0.4523 and 0.3946 and 0.3316 | Hill slope of activation by ATP (hP2X1 WT; mean ± SD of three EC50 traces): 0.9 ± 0.2 | EC50 of ATP (hP2X1 K309A; TEVC): impacted | Normalized Current (hP2X1 K309A; [ATP] 1.000E-02 M): 1.006 and 0.9573 and 1.036 | Normalized Current (hP2X1 K309A; [ATP] 2.000E-03 M): 0.8423 and 0.8039 and 0.8072 | Normalized Current (hP2X1 K309A; [ATP] 3.200E-06 M): 0.000000 | Normalized Current (hP2X1 K309A; [ATP] 4.000E-04 M): 0.3324 and 0.3289 and 0.2846 | apparent affinity (EC50) of ATP, effect of mutation (hP2X1 K249A; hP2X1 K249A vs wild-type, TEVC): do not appear to significantly change; also recorded: no major effect; also recorded: moderately increases | Normalized Current (hP2X1 K249A; [ATP] 1.000E-04 M): 1.03 and 1.005 and 0.9647 | Normalized Current (hP2X1 K249A; [ATP] 2.000E-05 M): 1.005 and 0.9326 and 0.8353 | Normalized Current (hP2X1 K249A; [ATP] 4.000E-06 M): 0.7721 and 0.7584 and 0.7231 | Normalized Current (hP2X1 K249A; [ATP] 8.000E-07 M): 0.6172 and 0.5832 and 0.5545 | EC50 of ATP (hP2X1 K136A; TEVC): did not affect | Normalized Current (hP2X1 K136A; [ATP] 1.000E-04 M): 0.9825 and 0.9019 and 0.8989 | Normalized Current (hP2X1 K136A; [ATP] 2.000E-05 M): 0.8446 and 0.8328 and 0.7216 | Normalized Current (hP2X1 K136A; [ATP] 4.000E-06 M): 0.7216 and 0.6921 and 0.6232 | Normalized Current (hP2X1 K136A; [ATP] 5.000E-04 M): 1.035 and 0.9912 and 0.9735 | Normalized Current (hP2X1 K136A; [ATP] 8.000E-07 M): 0.3703 and 0.2936 and 0.2241
